Patent US10562920B2, “Ln(III) and Ga(III) metallacrown complexes” (The Regents of the University of Michigan, priority 2015, dated 2020)
Several values for one entry are separate records, joined by “and”; a condition that tells them apart may be missing. Equal entries are not always repeated. Marks after values point to notes of the source that are not given here. Blank lines part the entries; values can stand above or below the substance they belong to.

Legend:
Type in all cases: physicochemical
[1] = Quantum yields by absolute method using an integration sphere; conditions: for QLn^L/%: Ga6Ln(shi)9, solid state
Protocol: (§1) Luminescence data were collected on samples placed into 2.4 mm i.d. quartz capillaries or quartz Suprasil cells. Emission and excitation spectra were measured on a Horiba-Jobin-YvonFluorolog 3 spectrofluorimeter equipped with either a visible photomultiplier tube (PMT) (220-800 nm, R928P; Hamamatsu), a NIR solid-state InGaAs detector cooled to 77 K (800-1600 nm, DSS-IGA020L; Jobin-Yvon), or NIR PMTs (950-1450 nm, H10330-45; 950-1650 nm, H10330-75; Hamamatsu). All spectra were corrected for instrumental functions. Luminescence lifetimes were determined under excitation at 355 nm provided by a Nd:YAG laser (YG 980; Quantel), while the signal was detected in the NIR by the aforementioned PMT (H10330-75). The output signal from the detectors was then fed to a 500 MHz bandpass digital oscilloscope (TDS 754C; Tektronix) and then transferred to a PC for treatment with Origin 8®. Luminescence lifetimes are averages of at least three independent measurements. Quantum yields were determined with a Fluorolog 3 spectrofluorimeter according to an absolute method using an integration sphere (GMP SA). Each sample was measured several times under slightly different experimental conditions. Estimated experimental error for quantum yields determination is 10%.

[2] = Luminescence lifetimes under excitation at 355 nm; conditions: for τobs/μs: Ga8Ln2(shi)8, solid state
Protocol: as §1

[3] = Emission spectra under ligand excitation at 350 nm; conditions: Ga8Ln2(shi)8, solid state
Protocol: as §1
Using an excitation wavelength of 350 nm, both visible and NIR emission arising from f-f transitions of different lanthanide ions can be observed (FIG. 13). In general, quantum yields are lower for Ga8Ln2(shi)8 MCs compared to […] (Table 3) except for Ho^3+ analogues which quantum yield is increased by 1.65 times reaching 3.3(1)·10^−3%.

[4] = Ligand triplet state from phosphorescence of Gd3+ analogues; conditions: for ΔE (cm^−1), energy gap between ligand triplet state and Ln3+ emissive state: T1 = 22 170 cm^−1, Ga4Ln(shi)4
Protocol: as §1
Phosphorescence can be observed by recording the signal emitted from Ga4Gd(shi)4 in time-resolved mode in the solid state at 77K upon excitation at 350 nm and using a 200 μS delay after the excitation flash (FIG. 9). The 0-0 component of this band represents the energy level of the ligand's triplet state (T1=22,170 cm^−1, 451 nm) which is attributed to the energy level responsible for the main contribution of the transfer to the Ln^3+. The T1 level is sufficiently high in energy to populate the excited states of a wide range of visible and NIR-emitting Ln^3+.
Since the Ga8Ln2(shi)8 dimer compounds were insoluble in all solvents, the solid state photophysical data alone were collected. As with the Ga4Gd(shi)4 compound, the Ga8Gd2(shi)8 complex may be used to examine the ligand-based photophysical properties. […] The solid state ligand phosphorescence was obtained at 77 K using an excitation wavelength of 350 nm and a 100 μs delay (FIG. 11). The profile of the phosphorescence is similar to that of Ga4Gd(shi)4 (FIG. 9), which was expected, since both compounds are formed by the same framework ligand, H3shi. The 0-0 transition was determined to be located at 455 nm, or 21 978 cm^−1. This triplet state energy is slightly lower than that of the Ga4Gd(shi)4 compound (22 170 cm^−1), but still is sufficiently high in energy to sensitize visible (Dy^3+, Tb^3+, Sm^3+) and/or NIR emitting (Dy^3+, Sm^3+, Ho^3+, Yb^3+, Pr^3+, Nd^3+, Er^3+) lanthanides.

[5] = Hydration number q from lifetimes in deuterated and protic solvents
Text: One parameter that can be obtained from the recording of luminescence lifetimes is the hydration number q. […] This non-zero q value is particularly detrimental for the intensity of the luminescence (and to the corresponding quantum yield values) of NIR-emitting lanthanides since the overtones of high-energy vibrations of the solvent molecules create a route for non-radiative deactivation.

[6] = Ga8Ln2(shi)8, solid state, excitation 350 nm
[7] = solid state, 77 K, excitation 350 nm
[8] = from kCH3OH − kCD3OD, equations of footnotes b, c, e, g

QLn^L/% [1]: 1.1(2) · 10^−3%
τ/μs ([2]; Ga6Ln(shi)9, solid state): 0.037(1) μs
Substance: [HoGa6(shi)7(Hshi)(H2shi)(C6H16N)3(C5H5N)2].8H2O [Ga6Ho(shi)9]

QLn^L (%) (NIR) [1, 6]: 5.7(1) · 10^−3%
τobs/μs [2]: 5.23(2) μs
λem/nm [3]: 1525 nm
Substance: [Ga8Er2(shi)8(isophthalate)4(DMF)6].8DMF.2H2O

ligand triplet state (T1, 0-0 component of phosphorescence), wavelength [4, 7]: 455 nm
ligand triplet state energy (T1, 0-0 component of phosphorescence) [4, 7]: 21 978 cm^−1
Substance: [Ga8Gd2(shi)8(isophthalate)4(DMF)6].8DMF.H2O

QLn^L/% [1]: 3.7(2) · 10^−3%
τ/μs ([2]; Ga6Ln(shi)9, solid state): 0.063(1) μs
Substance: [PrGa6(shi)7(Hshi)(H2shi)(C6H16N)3(C5H5N)2].4H2O [Ga6Pr(shi)9]

QLn^L/% VIS (only Dy) ([1]; solid state Ga4Ln(shi)6, only Dy): 0.222(6) (only Dy) %
QLn^L/% VIS (total) ([1]; solid state Ga4Ln(shi)6, total): 0.308(8) (total) %
τ/μs ([2]; solid state Ga4Ln(shi)6): 3.36(6) μs
Substance: [DyGa4(shi)4(H2shi)2(C5H5N)4(NO3)].(C5H5N)2 [Ga4Dyshi6]

QLn^L/% [1]: 1.64(9) %
τ/μs ([2]; Ga6Ln(shi)9, solid state): 70(1) μs
Substance: [SmGa6(shi)7(Hshi)(H2shi)(C6H16N)3(C5H5N)2].6H2O [Ga6Sm(shi)9]

τ/μs ([2]; solid state Ga4Ln(shi)6): 0.032(1) μs
Substance: [HoGa4(shi)4(H2shi)2(C5H5N)4(NO3)].(C5H5N)2 [Ga4Hoshi6]

QLn^L (%) (visible) ([1]; Ga4Ln(shi)4, CD3OD): 28.6(1) %
QLn^L (%) (visible) ([1]; Ga4Ln(shi)4, CH3OH): 23.7(3) %
QLn^L (%) (visible) ([1]; Ga4Ln(shi)4, Solid): 34.7% and 34.7(1) %
τobs (μs) ([2]; Ga4Ln(shi)4, CD3OD): 1960(10) μs
τobs (μs) ([2]; Ga4Ln(shi)4, CH3OH): 1510(10) μs
τobs (μs) ([2]; Ga4Ln(shi)4, Solid): 1080(10) μs
q (hydration number) [5, 8]: 1.2^c
ΔE (cm^−1), energy gap between ligand triplet state and Ln3+ emissive state [4]: 1 770 cm^−1
Substance: [Ga4Tb(shi)4(C6H5CO2)4(C5H5N)(CH3OH)].C5H6N.C5H5N.CH3OH
q (hydration number) ([5]; qTb = 10.0 × (kCH3OH − kCD3OD − 0.06), footnote d): 0.9^d

QLn^L (%) (NIR) ([1]; Ga4Ln(shi)4, CD3OD): 0.298(1) %
QLn^L (%) (visible) ([1]; Ga4Ln(shi)4, CD3OD): 2.33(5) %
QLn^L (%) (NIR) ([1]; Ga4Ln(shi)4, CH3OH): 2.65(6) · 10^−2%
QLn^L (%) (visible) ([1]; Ga4Ln(shi)4, CH3OH): 0.252(1) %
QLn^L (%) (NIR) ([1]; Ga4Ln(shi)4, Solid): 0.450(4) %
QLn^L (%) (visible) ([1]; Ga4Ln(shi)4, Solid): 2.46(8) %
τobs (μs) ([2]; Ga4Ln(shi)4, CD3OD): 255(1) μs
τobs (μs) ([2]; Ga4Ln(shi)4, CH3OH): 27.6(1) μs
τobs (μs) ([2]; Ga4Ln(shi)4, Solid): 148(1) μs
q (hydration number) [5, 8]: 0.8^b
ΔE (cm^−1), energy gap between ligand triplet state and Ln3+ emissive state [4]: 4 270 cm^−1
Substance: [Ga4Sm(shi)4(C6H5CO2)4(C5H5N)(CH3OH)].C5H6N.C5H5N.CH3OH

QLn^L (%) (NIR) [1, 6]: 9.3(1) · 10^−3%
τobs/μs [2]: 0.901(6) μs
λem/nm [3]: 1020 nm
Substance: [Ga8Pr2(shi)8(isophthalate)4(DMF)6].8DMF.2H2O

QLn^L (%) (visible) ([1]; Ga4Ln(shi)4, Solid): 0.02(1)^f %
τobs (μs) ([2]; Ga4Ln(shi)4, Solid): 1.47(1) μs
ΔE (cm^−1), energy gap between ligand triplet state and Ln3+ emissive state [4]: 820 cm⁻¹
Substance: [TmGa4(shi)4(C6H5CO2)4(C5H5N)(CH3OH)].C5H6N.0.5C5H5N [Ga4Tm(shi)4]

QLn^L/% [1]: 0.189(3) %
Substance: [TbGa6(shi)7(Hshi)(H2shi)(C6H16N)3(C5H5N)2] [Ga6Tb(shi)9]

QLn^L/% VIS ([1]; solid state Ga4Ln(shi)6): 11.3(5) %
τ/μs ([2]; solid state Ga4Ln(shi)6): 509(7) μs
Substance: [TbGa4(shi)4(H2shi)2(C5H5N)4(NO3)].(C5H5N)2 [Ga4Tbshi6]

QLn^L (%) (NIR) [1, 6]: 0.269(3) %
QLn^L (%) (visible) [1, 6]: 2.09(5) %
τobs/μs [2]: 117(1) μs
λem/nm [3]: 597 nm
Substance: [Ga8Sm2(shi)8(isophthalate)4(DMF)6].8DMF.2H2O

QLn^L/% NIR ([1]; solid state Ga4Ln(shi)6): 1.55(3) · 10^−3%
τ/μs ([2]; solid state Ga4Ln(shi)6): 0.220(3) μs
Substance: [ErGa4(shi)4(H2shi)2(C5H5N)5].(NO3).(C5H5N) [Ga4Ershi6]
